Measurements reported in US9907838B2, “Composition and methods for treating ischemic damage” (GEMVAX & KAEL CO., LTD., priority 2013, dated 2018).

Assays:
[1] = system: renal ischemic-reperfusion injury mouse model; assay: Renal failure markers (BUN and creatine) in renal ischemic-reperfusion injury mouse model; assay type: in vivo, C57BL/6 mouse; conditions: blood 24 hours after ischemic reperfusion; 1000 nmol/kg 30 minutes before and 12 hours after IR; compared to PBS control group
Experimental: (§1) A renal ischemic-reperfusion injury mouse model was established by inducing ischemic reperfusion by bilaterally clamping renal pedicles for 30 minutes and restoring blood flow 30 minutes later by removing the clamps. Test groups were divided into an administered group (PEP 1), a control group (PBS without PEP 1), and a sham group (no bilateral clamping). PEP 1 was […] injected at a concentration of 1000 nmol/kg 30 minutes before and 12 hours after the induction of ischemic reperfusion.
(§2) C57BL/6 mouse (8 weeks old; Charles River Laboratories, Wilmington, Mass.) was used to induce renal ischemic-reperfusion injury. After blocking blood flow by clamping the renal pedicles with vascular forceps and inducing ischemia for […], reperfusion was performed.
The peptide PEP 1 was diluted in PBS to a concentration of 1000 nmol/kg and intraperitoneally (i.p.) injected twice 30 minutes before and 12 hours after the ischemic reperfusion. […]
Blood was taken 24 hours after the ischemic reperfusion and the levels of blood urea nitrogen (BUN) and creatine as renal toxicity markers were measured. […] Then, proteins were extracted and the levels of cytokines were measured. The concentrations of creatine and BUN were measured using an autoanalyzer (Technicon RA-1000; Bayer, Tarrytown, N.Y.).

[2] = system: renal ischemic-reperfusion injury mouse model; assay: Renal tissue injury scoring after PAS staining in renal ischemic-reperfusion injury mouse model; assay type: in vivo, C57BL/6 mouse; conditions: 24 hours after ischemic reperfusion; 1000 nmol/kg 30 minutes before and 12 hours after IR; compared to PBS control group
Experimental: as §1, §2
(§3) The peptide PEP 1 was diluted in PBS to a concentration of 1000 nmol/kg and intraperitoneally (i.p.) injected twice 30 minutes before and 12 hours after the ischemic reperfusion. The test was conducted for the administered group (PEP 1), the control group (PBS), and the sham group (no ischemic reperfusion).
Renal tissue was stained with periodic acid-Schiff (PAS) stain according to the protocol of the manufacturer (Polysciences, Inc., Warrington, Pa., USA) 24 hours after the ischemic reperfusion. After the staining, renal tissue injury was evaluated through renal tissue injury scoring.

[3] = system: renal ischemic-reperfusion injury mouse model; assay: Renal apoptosis by TUNEL staining in renal ischemic-reperfusion injury mouse model; assay type: in vivo, C57BL/6 mouse; conditions: 24 hours after ischemic reperfusion; 1000 nmol/kg 30 minutes before and 12 hours after IR; compared to PBS control group
Experimental: as §1, §2, §3
Renal apoptosis was evaluated by staining renal tissue with TUNEL stain 24 hours after the ischemic reperfusion. Renal paraffin sections were stained with TUNEL using a TUNEL staining kit (Roche Applied Science, Indianapolis, Ind., USA).

[4] = system: renal ischemic-reperfusion injury mouse model; assay: Infiltration of innate immune cells (F4/80, Gr-1 staining) in renal tissue, renal ischemic-reperfusion injury mouse model; assay type: in vivo, C57BL/6 mouse; conditions: 24 hours after ischemic reperfusion; 1000 nmol/kg 30 minutes before and 12 hours after IR; compared to PBS control group
Experimental: as §1, §2, §3
Infiltration of innate immune cells was evaluated by immnohistologically staining renal tissue with F4/80 (macrophage maker) and Gr-1 (neutrophil maker) 24 hours after the ischemic reperfusion. […]

[5] = system: renal ischemic-reperfusion injury mouse model; assay: Inflammatory cytokine levels (IL-6, MCP-1, TNF-α) in renal tissue, renal ischemic-reperfusion injury mouse model; assay type: in vivo, C57BL/6 mouse; conditions: protein extracted from renal tissue 24 hours after ischemic reperfusion; 1000 nmol/kg twice; compared to PBS control group
Experimental: as §1, §2, §3
Blood was taken 24 hours after the ischemic reperfusion and the levels of blood urea nitrogen (BUN) and creatine as renal toxicity markers were measured. Renal tissue was taken and prepared into paraffin blocks for immunohistochemical and histological studies. Then, proteins were extracted and the levels of cytokines were measured. The concentrations of creatine and BUN were measured using an autoanalyzer (Technicon RA-1000; Bayer, Tarrytown, N.Y.).
Protein was extracted from renal tissue 24 hours after the ischemic reperfusion and the levels of IL-6, MCP-1 and TNF-α were measured according to the cytometric bead array method. Mouse IL-6, MCP-1, TNF-α ELISA kits were purchased from R&D Systems and the test was conducted according to the manufacturer's protocol.

[6] = system: rat model of ischemic-reperfusion injury (abdominal skin flaps); assay: Flap survivability in rat skin flap model of ischemic-reperfusion injury; assay type: in vivo, Sprague-Dawley rats; conditions: 7 days after induction of ischemic reperfusion; 10 mg/500 μL intramuscularly 30 minutes before and 1, 2, 3, 4, 5 and 7 days after; PBS-treated group 34.69%±16.44%; p<0.05
Experimental: A rat model of ischemic-reperfusion injury was established by acquiring 5 cm×5 cm skin flaps from the abdomen of Sprague-Dawley rats (weighing 180-230 g), administering PEP1 or saline, inducing local ischemia through clamping and then restoring blood flow 7 hours later by removing the clamps (see FIG. 11).
Test groups were divided into an administered group (PEP 1), a control group (PBS without PEP 1), and a sham group (no ischemic-reperfusion injury induced). PEP 1 (10 mg/500 μL) or PBS (500 μL) was intramuscularly injected 30 minutes before and 1, 2, 3, 4, 5 and 7 days after the induction of ischemic reperfusion.
Flap survivability was measured 7 days after the induction of ischemic reperfusion. The flap survival rate was measured through analysis of digital images using the imageJ program.

Sequence: EARPALLTSRLRFIPK (listed as Homo sapiens) [PEP 1]
- blood urea nitrogen (BUN) level [1]: significantly decreased
- creatine level [1]: significantly decreased
- renal tissue injury (renal tissue injury scoring, PAS stain) [2]: remarkably decreased
- TUNEL-positive cells in renal tissue [3]: remarkably decreased
- infiltration of macrophages (F4/80) into renal tissue [4]: remarkably decreased
- infiltration of neutrophils (Gr-1) into renal tissue [4]: remarkably decreased
- IL-6 level in renal tissue [5]: significantly decreased
- MCP-1 level in renal tissue [5]: significantly decreased
- TNF-α level in renal tissue [5]: no significant difference
- flap survival rate [6]: 58.88%±11.44%
